# Patent publication US8921367B2 (Amgen Inc., priority 2012, dated 2014)
# Experiments:
# advanced solid tumors = test: Ph I clinical dose escalation trial of oral AMG 900; tumor response by CT or MRI using RECIST criteria; type: in vivo, human
# Excerpt: Some of the objectives for the study included (1) determination of the maximal tolerated dose (MTD) and if necessary, the MTD in conjunction with prophylactic amounts of granulocyte colony stimulating factor (GCSF); (2) to evaluate the PD effects of drug exposure on phospho-histone H3 (serine 10) proteins levels in tumor tissue; (3) to evaluate change in tumor volume by volumetric or MRI analysis; and (4) to evaluate tumor response assessed by CT or MRI using RECIST criteria. The clinical trial was conducted in accordance with the following design/protocol:
# This is an open-label, sequential dose escalation study evaluating AMG 900 in subjects with advanced solid tumors. The study is being conducted in 2 parts: Part 1—Dose Escalation and Part 2—Dose Expansion. […] One cycle is defined as 14 days. Thus, 1 cycle=2 weeks (14 days) and DLT window=4 weeks (28 days).
# In addition, treatment with proton pump inhibitors or H2 receptor antagonists was withheld at least 48 hours prior to the first dose of each treatment cycle until at least 1 hour after the fourth dose of a treatment cycle. Starting Dose:
# In addition, treatment with proton pump inhibitors or H2 receptor antagonists were withheld at least 48 hours prior to the first dose of each treatment cycle until at least 1 hour after the fourth dose of a treatment cycle. One cycle was defined as 14 days. […] The investigator or sub-investigator performed a physical examination of each subject during clinic visits. A review of concomitant medications and an assessment of adverse events were performed at every visit.
# Efficacy was assessed by standardized contrast-enhanced CT or MRI and evaluated according to RECIST criteria. RECIST 1.0 and RECIST 1.1 criteria is described in the Journal of National Cancer Institute, Vol. 92, No. 3:205-216, 2000 and European Journal of Cancer 45:228-247, 2009, respectively, both disclosures of which are hereby incorporated herein by reference in their entireties. CT or MRI scans with contrast were acquired at baseline, 4 weeks after cycle 1 day 1, 8 weeks after cycle 1 day 1, and every 8 weeks thereafter until disease progression. Scans were acquired with slice thickness of about 5 mm or less. Baseline imaging studies were performed within 2 weeks prior to study day 1, and where practicable, they were performed as close to the day of enrollment as possible.
# AML = test: Ph I AML study of oral AMG 900; type: in vivo, human
# Excerpt: The data for both studies are as follows:
# [1] = Ph I dose escalation: MTD and DLT determination; type: in vivo, human; details: once daily oral, 4 days on/10 days off
# Excerpt: The dose escalation part of the study was aimed at determining a maximum tolerated dose (MTD) and if necessary the MTD with prophylactic GCSF support (MTD-G), and evaluating the safety, tolerability, pharmacokinetics and pharmacodynamics of AMG 900 in subjects with advanced solid tumors.
# A subsequent non-accelerated phase (SNAP) then commenced (≦50% dose escalations once the first grade 2 related toxicity occurred; ≦25% if a DLT occurs) in a standard 3+3 design at the dose level where DLT or possibly related grade 2 toxicity was observed. The percent of dose escalation depended upon toxicities observed in previous cohorts. Intra-subject dose escalation was not allowed. An MTD was determined without prophylactic GCSF support. If neutropenia (or neutropenia related toxicity) was dose limiting, then dose escalation proceeded with prophylactic GCSF support beginning at the dose level at which neutropenia (or neutropenia related toxicity) was dose limiting.
# CA-125 = CA-125 in ovarian cancer patient of the Ph I trial; type: in vivo, human; details: platinum-sensitive ovarian cancer patient; 16 mg once daily, 8 mg cycles 4-15, 12 mg at cycle 16; end of cycle 16
# Protocol: Disease progression by appearance of new bone lesions in CRPC in the dose expansion phase were evaluated with bone scans. Bone scans were performed at baseline, 4 weeks after cycle 1 day 1, 8 weeks after cycle 1 day 1, and every 8 weeks thereafter until disease progression. Efficacy in ovarian cancer and CRPC were evaluated based on the Rustin criteria (1996) and PCWG2 guidelines, respectively. CA-125 in ovarian cancer and PSA in CRPC were collected every 4 weeks.
# [2] = test system: histone H3, a proximal substrate of aurora-B; test: In vivo phosphorylation of histone H3
# [3] = test system: multiple tumor xenografts, including three MDR xenograft models resistant to paclitaxel or docetaxel; test: Growth of tumor xenografts; type: in vivo
# solid tumors = details: days 1 and 8 or days 1, 2 and 3 of 3-week cycle, cited from earlier work
# [4] = test system: advanced solid malignancies; details: cited from earlier work
# [5] = test system: advanced refractory solid tumors; details: cited from earlier work
# advanced solid tumor = details: daily dosing 5 or 10 consecutive days in 3-week cycles; cited from earlier work
compound,measurement,setting,value
"Cc1csc(-c2nnc(Nc3ccc(Oc4ncccc4-c4ccnc(N)n4)cc3)c3ccccc23)c1 [AMG 900, N-(4-((3-(2-amino-4-pyrimidinyl)-2-pyridinyl)oxy)phenyl)-4-(4-methyl-2-thienyl)-1-phthalazinamine]",Observed Response to AMG 900,"advanced solid tumors; Patient No. 1, 1 mg once per day oral, 4 days on/10 days off, cholangiocarcinoma, at week 24",SD at week 24
same,Observed Response to AMG 900,"advanced solid tumors; Patient No. 2, 8 mg once per day oral, 4 days on/10 days off, prostate, at week 8",SD at week 8
same,Observed Response to AMG 900,"advanced solid tumors; Patient No. 3, 16 mg once per day oral, 4 days on/10 days off, ovarian, at week 40",SD at week 40
same,Observed Response to AMG 900,"advanced solid tumors; Patient No. 4, 16 mg once per day oral, 4 days on/10 days off, breast, at week 4",SD at week 4
same,Observed Response to AMG 900,"advanced solid tumors; Patient No. 5, 24 mg once per day oral, 4 days on/10 days off, colon, at week 8",SD at week 8
same,Observed Response to AMG 900,"advanced solid tumors; Patient No. 6, 25 mg once per day oral, 4 days on/10 days off, rectal, at week 56",PD at week 56
same,Observed Response to AMG 900,"advanced solid tumors; Patient No. 7, 24 mg once per day oral, 4 days on/10 days off, Medullary thyroid, at week 120",SD at week 120
same,Observed Response to AMG 900,"advanced solid tumors; Patient No. 8, 30 mg + GCSF once per day oral, 4 days on/10 days off, endometrial, at Week 64",PR at Week 64;
same,Observed Response to AMG 900,"advanced solid tumors; Patient No. 8, 30 mg + GCSF once per day oral, 4 days on/10 days off, endometrial, at week 72",SD at week 72
same,Observed Response to AMG 900,"advanced solid tumors; Patient No. 9, 30 mg + GCSF once per day oral, 4 days on/10 days off, chondrosarcoma, at week 40",SD at week 40
same,Observed Response to AMG 900,"advanced solid tumors; Patient No. 10, 40 mg + GCSF once per day oral, 4 days on/10 days off, colon, at week 32",SD at week 32
same,Observed Response to AMG 900,"advanced solid tumors; Patient No. 11, 40 mg + GCSF once per day oral, 4 days on/10 days off, Non-small cell lung, at week 32",SD at week 32
same,Observed Response to AMG 900,"advanced solid tumors; Patient No. 12, 50 mg + GCSF once per day oral, 4 days on/10 days off, thyroid, at week 32",SD at week 32
same,Observed Response to AMG 900,"advanced solid tumors; Patient No. 13, 40 mg + GCSF once per day oral, 4 days on/10 days off, prostate, at week 8",SD at week 8
same,lowest once daily dose at which anti cancer activity was observed,"advanced solid tumors; once daily oral, 4 days on/10 days off",8 mg
same,decrease of long axis diameter of tumor versus base line diameter on day 1,"advanced solid tumors; patient with stage IV solid endometrial tumor, 30 mg + GCSF once daily, 4 days on/10 days off, week 24, CT, RECIST 1.0",approximately 50%
same,reduction of short axis diameter of tumor versus base line diameter on day 1,"advanced solid tumors; patient with stage IV-B solid ovarian tumor, 30 mg once daily, 4 days on/10 days off, two cycles, week 4, RECIST 1.1",about 30%
same,decrease in SLD (sum of long axis diameters) on CT,"advanced solid tumors; platinum-sensitive ovarian cancer patient, 16 mg once daily, 8 mg cycles 4-15, 12 mg at cycle 16, 4-day on-10 day off, end of cycle 16",16%
same,reduction of short axis diameter of tumor,"advanced solid tumors; same endometrial solid tumor, 30 mg once daily, week 16 after eight (8) cycles, CT, RECIST 1.1",up to 40%
same,Observed Response to AMG 900,"AML; Patient No. 14, 80 mg once per day oral, 4 days on/10 days off",Active
same,Observed Response to AMG 900,"AML; Patient No. 15, 80 mg once per day oral, 4 days on/10 days off",Active
same,Observed Response to AMG 900,"AML; Patient No. 16, 30 mg once per day oral, 7 days on/7 days off",Active
same,doses at which MTD's and DLT's were observed,[1],greater than 8 mg
same,decrease in CA-125,CA-125,45%
same,phosphorylation of histone H3,[2],blocks the phosphorylation
same,growth of tumor xenografts,[3],inhibits the growth
Cc1cc(Nc2ncc(F)c(NC3C4C=CC(C4)C3C(N)=O)n2)ccc1N1CCN(C)CC1 (stereo not drawn) [AS703569],impact on the patient's solid tumors,solid tumors,no positive impact(s)
same,tolerability,solid tumors; various dosages,tolerable
CCN(CCCOc1ccc2c(Nc3cc(CC(=O)Nc4cccc(F)c4)n[nH]3)ncnc2c1)CCOP(=O)(O)O [AZD1152],dosage amount safely administered,[4]; 2 hour IV infusion every 7 days,≤ 450 mg
same,disease response,"[4]; patients with rapidly progressive diseases, within 450 mg dose",significantly stabilize disease
CO[C@@H](C(=O)N1Cc2n[nH]c(NC(=O)c3ccc(N4CCN(C)CC4)cc3)c2C1)c1ccccc1 [Danusertib],amount that can be safely administered,[5]; over 24 hours in 14 day cycles without GCSF,≤ 500 mg/m^2
same,tumor response,"[5]; within dose of 500 mg/m^2, small cell lung carcinoma, prolonged disease stabilization in other solid tumors",prolonged objective response
CC(=O)NCC(=O)N1[C@@H]2CC[C@H]1c1ccc(Nc3ncc(C(F)(F)F)c(NC4CCC4)n3)cc12 [PF-03814735],objective response on the tumors,advanced solid tumor,NO objective response
